Measurements from US8617906B2, “Identification and screening of triptolide target molecules” (priority 2004, dated 2013).

Legend:
[1] = biological target: T1, Hypothetical Protein—GI 7705346 (PG790) (Homo sapiens, UniProt Q9Y4R8); experiment: Isolation of proteins binding 3H-triptolide in Jurkat cells; conditions: 3H-labeled Jurkat cell extract
T1 construct: Jurkat cells from expanding cultures were labeled with; endogenous in cells; host or cells: Jurkat
Experimental: (§1) Triptolide target molecules were isolated and identified by purification and identification of molecules that bind ^3H-triptolide. Jurkat cells from expanding cultures were labeled with ^3H-triptolide by cultivation at 37° C. with 5% CO2 for a period of time between a few hours and overnight (usually 6-7 hours) and harvested by centrifugation and washing in ice-cold phosphate buffered saline. The cells (usually 1-3×10^6/ml) were generally labeled with ^3H-triptolide to a final concentration of 35 nM (100 μCi/200 ml of medium). Collected cell pellets were pooled, and the cells were either extracted and subjected to separation and purification at that time, or were frozen and stored at −20° C. as pellets for extraction and investigation at a later time.
(§2) The cells were extracted with M-per buffer (Pierce) and homogenized in presence of a protease inhibitor cocktail, sometimes including other reagents such as deoxyribonuclease (DNase). […] When the extracts components were found not to be sufficiently purified, enriched or reduced in number, 2D gel electrophoresis was employed, followed by fluorography for ^3H-associated radioactivity detection, and MALDI/MS of the corresponding peptides (after proteolysis) and peptide fingerprinting. […]

[2] = biological target: T2, L-plastin (PG772) (Homo sapiens, UniProt P13796); experiment: as above; conditions: 3H-labeled compound incubated with Jurkat cells
T2 construct: Jurkat cells from expanding cultures were labeled with; endogenous in cells; host or cells: Jurkat
T2 sequence (P13796 whole entry): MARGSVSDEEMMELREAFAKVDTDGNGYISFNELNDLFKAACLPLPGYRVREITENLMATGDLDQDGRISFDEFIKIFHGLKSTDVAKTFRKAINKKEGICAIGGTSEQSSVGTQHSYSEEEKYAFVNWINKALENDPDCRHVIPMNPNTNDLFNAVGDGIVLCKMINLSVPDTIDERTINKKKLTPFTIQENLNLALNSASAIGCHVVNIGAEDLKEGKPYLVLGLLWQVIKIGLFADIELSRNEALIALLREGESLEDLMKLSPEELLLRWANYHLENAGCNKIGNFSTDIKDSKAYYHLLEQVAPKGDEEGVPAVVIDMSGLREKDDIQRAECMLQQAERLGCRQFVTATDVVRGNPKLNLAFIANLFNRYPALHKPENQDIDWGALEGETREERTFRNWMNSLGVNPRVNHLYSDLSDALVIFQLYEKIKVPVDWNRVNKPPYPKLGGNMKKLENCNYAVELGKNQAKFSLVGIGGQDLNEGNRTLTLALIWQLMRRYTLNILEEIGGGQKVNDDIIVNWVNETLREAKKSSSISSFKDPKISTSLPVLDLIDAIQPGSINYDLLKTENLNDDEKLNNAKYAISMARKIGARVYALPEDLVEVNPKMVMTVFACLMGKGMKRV
Experimental: as §1, with “Collected cell pellets were pooled, and the cells were either extracted and subjected to separation and purification at that time, or were frozen and stored at −20° C. as pellets for extraction and investigation at a later time.” left out
as §2
(§3) MALDI-MS peptide fingerprinting analysis identified HSP 90β (PG771) in fraction #4 and L-plastin (PG772) in fraction #9. […] A positive spot on the film (fluorographically positive, therefore positive for ^3H-associated radioactivity) was seen near the 29 kDa protein marker. […]

[3] = biological target: T3, Human Serine/Threonine Protein Phosphatase 2A 130 KDa regulatory subunit, PP2A (PG789) (Homo sapiens, UniProt Q06190); experiment: as above; conditions: 3H-labeled Jurkat cell extract
T3 construct: endogenous in cells; host or cells: Jurkat
T3 sequence (Q06190 whole entry): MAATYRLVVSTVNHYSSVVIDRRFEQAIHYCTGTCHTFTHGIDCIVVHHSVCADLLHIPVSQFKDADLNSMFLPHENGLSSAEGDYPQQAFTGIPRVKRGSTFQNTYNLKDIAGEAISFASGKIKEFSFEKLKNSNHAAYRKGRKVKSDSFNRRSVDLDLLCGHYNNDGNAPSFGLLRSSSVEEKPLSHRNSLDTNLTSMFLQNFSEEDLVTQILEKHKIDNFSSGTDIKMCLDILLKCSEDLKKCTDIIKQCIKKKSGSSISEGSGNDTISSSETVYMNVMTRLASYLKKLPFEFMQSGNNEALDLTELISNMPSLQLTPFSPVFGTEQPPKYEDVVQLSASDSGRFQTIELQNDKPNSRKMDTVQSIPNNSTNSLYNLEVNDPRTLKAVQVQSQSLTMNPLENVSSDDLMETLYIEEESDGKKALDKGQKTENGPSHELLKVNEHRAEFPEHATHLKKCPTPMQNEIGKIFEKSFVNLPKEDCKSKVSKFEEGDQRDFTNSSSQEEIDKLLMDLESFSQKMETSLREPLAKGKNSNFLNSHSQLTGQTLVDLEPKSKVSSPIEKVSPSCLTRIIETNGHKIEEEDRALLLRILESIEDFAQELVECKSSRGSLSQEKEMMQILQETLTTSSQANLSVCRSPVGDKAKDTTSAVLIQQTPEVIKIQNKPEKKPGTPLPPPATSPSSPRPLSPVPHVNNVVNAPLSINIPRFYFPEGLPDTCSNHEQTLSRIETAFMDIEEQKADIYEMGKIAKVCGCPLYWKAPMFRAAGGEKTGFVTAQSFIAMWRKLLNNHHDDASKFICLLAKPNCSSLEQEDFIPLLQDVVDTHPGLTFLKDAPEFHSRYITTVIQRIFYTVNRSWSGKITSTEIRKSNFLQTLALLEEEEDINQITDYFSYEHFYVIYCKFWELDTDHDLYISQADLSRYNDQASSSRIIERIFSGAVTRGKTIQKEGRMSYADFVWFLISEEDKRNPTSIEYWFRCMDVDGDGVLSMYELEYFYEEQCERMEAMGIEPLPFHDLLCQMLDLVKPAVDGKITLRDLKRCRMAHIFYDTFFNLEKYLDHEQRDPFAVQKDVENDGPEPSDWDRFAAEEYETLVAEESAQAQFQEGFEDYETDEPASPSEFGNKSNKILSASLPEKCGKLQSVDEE
Experimental: as §1, §2

[4] = biological target: T4, Thioredoxin Reductase (PG774) (Homo sapiens, UniProt Q16881); experiment: as above; conditions: 3H-labeled compound incubated with Jurkat cells
T4 construct: endogenous in cells; host or cells: Jurkat
T4 sequence (Q16881 151-649 limits assumed): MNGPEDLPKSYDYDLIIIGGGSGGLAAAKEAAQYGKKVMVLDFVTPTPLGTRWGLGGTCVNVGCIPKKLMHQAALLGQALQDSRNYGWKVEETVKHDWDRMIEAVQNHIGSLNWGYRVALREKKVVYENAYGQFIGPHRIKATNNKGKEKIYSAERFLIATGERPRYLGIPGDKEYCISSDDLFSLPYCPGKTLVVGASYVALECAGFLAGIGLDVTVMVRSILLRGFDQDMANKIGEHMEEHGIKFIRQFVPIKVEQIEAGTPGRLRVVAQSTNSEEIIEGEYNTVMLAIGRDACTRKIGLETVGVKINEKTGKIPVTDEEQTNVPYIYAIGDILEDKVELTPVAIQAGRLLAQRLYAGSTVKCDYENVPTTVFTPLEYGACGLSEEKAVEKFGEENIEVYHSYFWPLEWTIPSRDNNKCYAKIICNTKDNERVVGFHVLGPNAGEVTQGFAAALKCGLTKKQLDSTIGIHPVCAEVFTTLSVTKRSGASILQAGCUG
Experimental: as §1, §2

[5] = biological target: T5, HSP 90β (PG771) (Homo sapiens, UniProt P08238); experiment: Isolation of proteins binding 3H-triptolide in Jurkat cells (FPLC, 2D gel, fluorography, MALDI-MS); conditions: 3H-labeled compound incubated with Jurkat cells
T5 construct: Jurkat cells from expanding cultures were labeled with; endogenous in cells; host or cells: Jurkat
T5 sequence (P08238 whole entry): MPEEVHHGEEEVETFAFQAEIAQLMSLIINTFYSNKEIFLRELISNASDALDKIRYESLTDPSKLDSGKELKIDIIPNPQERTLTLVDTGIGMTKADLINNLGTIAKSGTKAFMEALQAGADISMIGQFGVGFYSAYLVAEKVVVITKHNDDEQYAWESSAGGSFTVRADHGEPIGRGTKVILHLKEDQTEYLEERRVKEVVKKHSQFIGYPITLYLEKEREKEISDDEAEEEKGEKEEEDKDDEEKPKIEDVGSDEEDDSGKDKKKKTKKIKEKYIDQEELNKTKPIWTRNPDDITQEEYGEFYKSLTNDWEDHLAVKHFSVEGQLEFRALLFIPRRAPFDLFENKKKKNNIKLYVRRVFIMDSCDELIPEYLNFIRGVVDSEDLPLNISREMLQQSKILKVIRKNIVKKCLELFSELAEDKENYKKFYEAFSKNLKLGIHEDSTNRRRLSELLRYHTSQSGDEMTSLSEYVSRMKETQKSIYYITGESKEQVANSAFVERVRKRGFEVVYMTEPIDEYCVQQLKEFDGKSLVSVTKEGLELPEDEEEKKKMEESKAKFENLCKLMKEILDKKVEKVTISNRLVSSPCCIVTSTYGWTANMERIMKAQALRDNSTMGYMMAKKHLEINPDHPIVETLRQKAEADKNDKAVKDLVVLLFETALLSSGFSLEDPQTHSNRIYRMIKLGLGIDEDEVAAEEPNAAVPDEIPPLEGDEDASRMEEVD
Experimental: as §1, with “Collected cell pellets were pooled, and the cells were either extracted and subjected to separation and purification at that time, or were frozen and stored at −20° C. as pellets for extraction and investigation at a later time.” left out
as §2, §3

T1 sequence (Q9Y4R8 whole entry): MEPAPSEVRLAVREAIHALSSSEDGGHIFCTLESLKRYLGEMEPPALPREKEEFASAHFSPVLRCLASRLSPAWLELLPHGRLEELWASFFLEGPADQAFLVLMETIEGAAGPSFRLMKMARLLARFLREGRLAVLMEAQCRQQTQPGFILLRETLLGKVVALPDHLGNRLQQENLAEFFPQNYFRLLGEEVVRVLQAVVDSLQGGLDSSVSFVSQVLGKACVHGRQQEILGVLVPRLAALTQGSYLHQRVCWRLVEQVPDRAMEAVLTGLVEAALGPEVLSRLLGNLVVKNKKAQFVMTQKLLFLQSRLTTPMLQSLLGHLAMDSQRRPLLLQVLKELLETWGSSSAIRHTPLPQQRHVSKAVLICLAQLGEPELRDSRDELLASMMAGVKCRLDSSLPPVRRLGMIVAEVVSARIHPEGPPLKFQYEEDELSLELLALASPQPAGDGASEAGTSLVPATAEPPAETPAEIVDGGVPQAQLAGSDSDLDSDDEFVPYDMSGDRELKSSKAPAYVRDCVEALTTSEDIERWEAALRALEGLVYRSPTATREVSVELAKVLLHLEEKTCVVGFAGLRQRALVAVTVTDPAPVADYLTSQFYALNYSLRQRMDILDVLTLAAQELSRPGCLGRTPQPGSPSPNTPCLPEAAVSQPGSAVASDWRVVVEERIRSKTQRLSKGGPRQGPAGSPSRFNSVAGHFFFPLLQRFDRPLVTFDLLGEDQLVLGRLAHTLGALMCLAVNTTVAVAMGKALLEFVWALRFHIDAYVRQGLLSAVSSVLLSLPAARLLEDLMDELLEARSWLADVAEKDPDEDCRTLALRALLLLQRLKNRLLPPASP

CC(C)[C@]12O[C@H]1[C@@H]1O[C@]13[C@]1(O[C@H]1C[C@H]1C4=C(CC[C@@]13C)C(=O)OC4)[C@@H]2O [triptolide]
identified: 3H-associated protein identified as triptolide target: GI 7705346 [1] | 3H-associated protein identified as triptolide target: L-plastin [2] | 3H-associated protein identified as triptolide target: PP2A 130 KDa regulatory subunit [3] | 3H-associated protein identified as triptolide target: Thioredoxin Reductase [4] | 3H-associated protein identified as triptolide target: HSP 90β [5]
